Like-named read-outs stand apart in the source and are kept apart here.
Assays:
Experiment in all cases: Kinase Profiler, residual kinase activity
Assay type in all cases: biochemical
MAPKAPK2 = biological target: T1, MAPKAPK2 (Homo sapiens, UniProt P49137); details: read-out: percentage of the remaining kinase activity
T1 construct: purchased Research Biology Corp. (http://www.reactionbiology.com)

LIMK1 = LIMK1 (Homo sapiens, UniProt P53667); details: read-out: percentage of the remaining kinase activity
Chain of LIMK1 (P53667 whole entry): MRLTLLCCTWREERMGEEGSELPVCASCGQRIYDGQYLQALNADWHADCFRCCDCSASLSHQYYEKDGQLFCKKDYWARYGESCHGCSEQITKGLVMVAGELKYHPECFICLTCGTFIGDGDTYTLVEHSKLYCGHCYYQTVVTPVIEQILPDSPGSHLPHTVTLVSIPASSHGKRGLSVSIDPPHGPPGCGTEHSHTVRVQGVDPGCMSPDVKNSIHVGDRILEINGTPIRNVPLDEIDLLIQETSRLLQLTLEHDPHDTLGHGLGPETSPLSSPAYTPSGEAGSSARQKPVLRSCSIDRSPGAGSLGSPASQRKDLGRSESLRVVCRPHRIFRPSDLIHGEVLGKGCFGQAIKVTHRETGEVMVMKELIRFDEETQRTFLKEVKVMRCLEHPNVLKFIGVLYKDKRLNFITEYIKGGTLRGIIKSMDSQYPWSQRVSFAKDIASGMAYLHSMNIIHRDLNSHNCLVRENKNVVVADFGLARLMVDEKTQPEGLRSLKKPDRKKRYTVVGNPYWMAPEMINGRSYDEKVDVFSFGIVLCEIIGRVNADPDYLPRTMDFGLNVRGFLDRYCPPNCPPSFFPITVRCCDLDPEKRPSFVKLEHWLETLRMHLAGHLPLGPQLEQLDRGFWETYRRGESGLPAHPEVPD
Source text: (§1) Kinase Profiler services provided by […]. (http://www.reactionbiology.com) were used to analyze the data of the 9 type-S protein kinase inhibitors against the 40 types of protein kinases.

JAK2 = JAK2 (Homo sapiens, UniProt O60674); details: read-out: percentage of the remaining kinase activity
Chain of JAK2 (O60674 whole entry): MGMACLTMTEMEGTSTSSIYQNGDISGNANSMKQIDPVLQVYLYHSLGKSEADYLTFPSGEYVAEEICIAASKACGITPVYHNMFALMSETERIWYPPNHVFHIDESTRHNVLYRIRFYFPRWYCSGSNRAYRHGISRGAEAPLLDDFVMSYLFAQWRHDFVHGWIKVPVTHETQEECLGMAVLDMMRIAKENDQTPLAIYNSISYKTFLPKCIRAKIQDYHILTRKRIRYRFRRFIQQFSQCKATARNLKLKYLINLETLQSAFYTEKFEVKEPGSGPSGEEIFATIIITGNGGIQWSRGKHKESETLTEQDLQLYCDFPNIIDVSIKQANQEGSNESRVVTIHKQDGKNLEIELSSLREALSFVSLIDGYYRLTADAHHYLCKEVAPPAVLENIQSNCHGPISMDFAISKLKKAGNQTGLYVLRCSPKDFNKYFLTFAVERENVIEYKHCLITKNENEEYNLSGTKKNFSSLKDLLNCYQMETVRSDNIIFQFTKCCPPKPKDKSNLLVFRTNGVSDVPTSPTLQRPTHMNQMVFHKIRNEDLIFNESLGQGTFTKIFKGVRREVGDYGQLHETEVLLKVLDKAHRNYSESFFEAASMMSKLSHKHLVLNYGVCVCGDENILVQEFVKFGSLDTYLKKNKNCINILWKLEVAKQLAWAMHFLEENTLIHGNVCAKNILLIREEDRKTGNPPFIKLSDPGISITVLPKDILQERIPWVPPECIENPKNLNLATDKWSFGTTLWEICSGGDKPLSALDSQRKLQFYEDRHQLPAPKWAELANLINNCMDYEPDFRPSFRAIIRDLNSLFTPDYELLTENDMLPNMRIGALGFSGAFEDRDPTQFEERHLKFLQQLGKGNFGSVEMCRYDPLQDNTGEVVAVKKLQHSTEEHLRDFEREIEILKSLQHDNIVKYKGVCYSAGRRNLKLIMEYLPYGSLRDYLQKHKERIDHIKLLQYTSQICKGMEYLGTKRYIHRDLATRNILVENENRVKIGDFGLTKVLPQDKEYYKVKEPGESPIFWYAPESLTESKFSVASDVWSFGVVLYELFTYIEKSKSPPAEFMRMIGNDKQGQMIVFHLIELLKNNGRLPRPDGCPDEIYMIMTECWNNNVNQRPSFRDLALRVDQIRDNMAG
Source text: as §1

STK16 = biological target: T2, STK16 (Homo sapiens, UniProt O75716); details: read-out: percentage of the remaining kinase activity
T2 construct: purchased Research Biology Corp. (http://www.reactionbiology.com)
T2 sequence (O75716 whole entry): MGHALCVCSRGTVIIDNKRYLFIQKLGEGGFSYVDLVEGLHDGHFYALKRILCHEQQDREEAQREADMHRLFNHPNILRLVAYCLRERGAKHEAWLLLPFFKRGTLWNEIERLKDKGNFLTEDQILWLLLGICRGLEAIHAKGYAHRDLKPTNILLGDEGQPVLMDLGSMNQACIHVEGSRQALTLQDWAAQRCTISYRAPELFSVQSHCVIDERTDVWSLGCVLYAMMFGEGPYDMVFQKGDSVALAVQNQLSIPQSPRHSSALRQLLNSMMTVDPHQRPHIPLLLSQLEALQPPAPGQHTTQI
Source text: as §1

AURKA = biological target: T3, AURKA (Homo sapiens, UniProt O14965); details: read-out: percentage of the remaining kinase activity
T3 sequence (O14965 1-403): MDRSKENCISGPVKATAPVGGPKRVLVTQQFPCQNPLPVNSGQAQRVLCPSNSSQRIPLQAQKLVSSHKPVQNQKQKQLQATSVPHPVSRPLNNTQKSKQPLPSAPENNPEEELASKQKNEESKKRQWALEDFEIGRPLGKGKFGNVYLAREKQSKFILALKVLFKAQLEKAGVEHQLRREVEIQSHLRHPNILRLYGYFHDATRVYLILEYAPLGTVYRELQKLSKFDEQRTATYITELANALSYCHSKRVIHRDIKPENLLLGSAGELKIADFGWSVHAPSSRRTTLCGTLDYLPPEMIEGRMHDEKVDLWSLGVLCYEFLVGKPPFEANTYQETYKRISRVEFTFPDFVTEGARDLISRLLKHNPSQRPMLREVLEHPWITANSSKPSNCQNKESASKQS
Source text: as §1

BTK = BTK (Homo sapiens, UniProt Q06187); details: read-out: percentage of the remaining kinase activity
Chain of BTK (Q06187 whole entry): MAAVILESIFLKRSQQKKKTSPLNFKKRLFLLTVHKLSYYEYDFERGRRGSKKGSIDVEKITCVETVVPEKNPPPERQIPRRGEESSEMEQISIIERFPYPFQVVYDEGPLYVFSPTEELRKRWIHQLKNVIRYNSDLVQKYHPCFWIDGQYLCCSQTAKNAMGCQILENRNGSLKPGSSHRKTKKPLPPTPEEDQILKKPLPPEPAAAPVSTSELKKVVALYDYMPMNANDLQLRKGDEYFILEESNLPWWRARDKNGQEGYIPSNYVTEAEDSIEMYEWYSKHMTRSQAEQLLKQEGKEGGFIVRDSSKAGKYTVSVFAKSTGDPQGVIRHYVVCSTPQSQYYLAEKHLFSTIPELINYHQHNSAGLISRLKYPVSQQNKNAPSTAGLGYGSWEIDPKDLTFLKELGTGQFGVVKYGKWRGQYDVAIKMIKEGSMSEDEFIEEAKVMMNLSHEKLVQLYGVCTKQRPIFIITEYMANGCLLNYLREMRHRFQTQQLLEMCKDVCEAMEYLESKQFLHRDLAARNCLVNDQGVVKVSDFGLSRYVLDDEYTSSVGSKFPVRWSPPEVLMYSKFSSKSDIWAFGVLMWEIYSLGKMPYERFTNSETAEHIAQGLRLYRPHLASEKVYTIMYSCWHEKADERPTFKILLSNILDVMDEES
Source text: as §1

SRPK1 = biological target: T4, SRPK1 (Homo sapiens, UniProt Q96SB4); details: read-out: percentage of the remaining kinase activity
T4 construct: purchased Research Biology Corp. (http://www.reactionbiology.com)
T4 sequence (Q96SB4 whole entry): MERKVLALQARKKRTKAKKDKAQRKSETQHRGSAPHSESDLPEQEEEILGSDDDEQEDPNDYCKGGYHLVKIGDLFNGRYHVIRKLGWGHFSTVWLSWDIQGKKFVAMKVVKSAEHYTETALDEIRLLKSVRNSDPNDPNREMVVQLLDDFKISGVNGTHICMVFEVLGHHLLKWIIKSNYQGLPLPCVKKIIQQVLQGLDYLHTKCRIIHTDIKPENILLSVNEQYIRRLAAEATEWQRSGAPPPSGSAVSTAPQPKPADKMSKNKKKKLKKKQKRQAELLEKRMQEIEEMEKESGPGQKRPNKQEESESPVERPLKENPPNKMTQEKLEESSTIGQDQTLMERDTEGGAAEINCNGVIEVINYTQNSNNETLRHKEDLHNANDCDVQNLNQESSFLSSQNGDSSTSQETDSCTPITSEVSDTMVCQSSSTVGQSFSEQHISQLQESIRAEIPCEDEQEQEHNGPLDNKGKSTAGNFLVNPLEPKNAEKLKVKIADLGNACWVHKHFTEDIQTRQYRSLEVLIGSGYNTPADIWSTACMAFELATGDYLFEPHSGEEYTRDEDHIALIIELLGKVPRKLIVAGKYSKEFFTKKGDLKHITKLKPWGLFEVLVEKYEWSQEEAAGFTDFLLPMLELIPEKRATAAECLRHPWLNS
Source text: as §1

CLK1 = CLK1 (Homo sapiens, UniProt P49759); details: read-out: percentage of the remaining kinase activity
Source text: as §1

FGFR2 = biological target: T5, FGFR2 (Homo sapiens, UniProt P21802); details: for remaining activity at 0.5 µM: read-out: percentage of the remaining kinase activity
T5 construct: purchased Research Biology Corp. (http://www.reactionbiology.com)
T5 sequence (P21802 22-821): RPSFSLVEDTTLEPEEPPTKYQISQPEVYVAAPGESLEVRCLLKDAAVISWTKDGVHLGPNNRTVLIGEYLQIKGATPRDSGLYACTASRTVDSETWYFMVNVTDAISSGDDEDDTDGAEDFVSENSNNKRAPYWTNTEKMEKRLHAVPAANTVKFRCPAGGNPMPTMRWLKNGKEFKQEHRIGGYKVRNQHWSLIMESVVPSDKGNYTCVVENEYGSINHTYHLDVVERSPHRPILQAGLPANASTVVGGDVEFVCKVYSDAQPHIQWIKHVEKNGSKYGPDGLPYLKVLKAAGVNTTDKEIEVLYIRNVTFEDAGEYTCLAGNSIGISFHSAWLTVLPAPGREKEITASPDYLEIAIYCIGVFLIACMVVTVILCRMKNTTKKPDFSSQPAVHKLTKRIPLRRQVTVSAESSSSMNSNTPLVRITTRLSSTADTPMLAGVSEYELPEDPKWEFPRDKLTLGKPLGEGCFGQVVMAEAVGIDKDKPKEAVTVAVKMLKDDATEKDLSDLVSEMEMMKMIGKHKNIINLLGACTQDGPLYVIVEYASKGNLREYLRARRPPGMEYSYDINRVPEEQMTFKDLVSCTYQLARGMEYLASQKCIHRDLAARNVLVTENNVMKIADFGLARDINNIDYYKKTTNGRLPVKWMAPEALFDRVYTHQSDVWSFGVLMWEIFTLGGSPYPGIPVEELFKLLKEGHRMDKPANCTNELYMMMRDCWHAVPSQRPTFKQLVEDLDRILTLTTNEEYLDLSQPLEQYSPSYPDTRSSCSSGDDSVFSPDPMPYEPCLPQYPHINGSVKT
Source text: as §1

RPS6KA5 = biological target: T6, RPS6KA5 (Homo sapiens, UniProt O75582); details: read-out: percentage of the remaining kinase activity
T6 construct: purchased Research Biology Corp. (http://www.reactionbiology.com)
Source text: as §1

EGFR = biological target: T7, EGFR (Homo sapiens, UniProt P00533); details: read-out: percentage of the remaining kinase activity
T7 construct: purchased Research Biology Corp. (http://www.reactionbiology.com)
Source text: as §1

PAK4 = PAK4 (Homo sapiens, UniProt O96013); details: read-out: percentage of the remaining kinase activity
Source text: as §1

MAP3K7 = biological target: T8, MAP3K7 (Homo sapiens, UniProt O43318); details: read-out: percentage of the remaining kinase activity
T8 construct: purchased Research Biology Corp. (http://www.reactionbiology.com)
T8 sequence (O43318 1-303 limits assumed): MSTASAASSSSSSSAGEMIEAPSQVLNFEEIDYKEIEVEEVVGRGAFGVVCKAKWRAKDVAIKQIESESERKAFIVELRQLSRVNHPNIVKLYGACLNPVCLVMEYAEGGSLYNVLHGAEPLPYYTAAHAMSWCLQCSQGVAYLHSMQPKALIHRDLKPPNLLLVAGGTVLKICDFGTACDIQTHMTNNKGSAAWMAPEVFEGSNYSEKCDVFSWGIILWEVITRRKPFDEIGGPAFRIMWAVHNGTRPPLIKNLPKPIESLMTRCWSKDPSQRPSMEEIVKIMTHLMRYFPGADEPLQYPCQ
Source text: as §1

OXSR1 = biological target: T9, OXSR1 (Homo sapiens, UniProt O95747); details: read-out: percentage of the remaining kinase activity
T9 construct: purchased Research Biology Corp. (http://www.reactionbiology.com)
Source text: as §1

PLK1 = biological target: T10, PLK1 (Homo sapiens, UniProt P53350); details: read-out: percentage of the remaining kinase activity
T10 construct: purchased Research Biology Corp. (http://www.reactionbiology.com)
T10 sequence (P53350 whole entry): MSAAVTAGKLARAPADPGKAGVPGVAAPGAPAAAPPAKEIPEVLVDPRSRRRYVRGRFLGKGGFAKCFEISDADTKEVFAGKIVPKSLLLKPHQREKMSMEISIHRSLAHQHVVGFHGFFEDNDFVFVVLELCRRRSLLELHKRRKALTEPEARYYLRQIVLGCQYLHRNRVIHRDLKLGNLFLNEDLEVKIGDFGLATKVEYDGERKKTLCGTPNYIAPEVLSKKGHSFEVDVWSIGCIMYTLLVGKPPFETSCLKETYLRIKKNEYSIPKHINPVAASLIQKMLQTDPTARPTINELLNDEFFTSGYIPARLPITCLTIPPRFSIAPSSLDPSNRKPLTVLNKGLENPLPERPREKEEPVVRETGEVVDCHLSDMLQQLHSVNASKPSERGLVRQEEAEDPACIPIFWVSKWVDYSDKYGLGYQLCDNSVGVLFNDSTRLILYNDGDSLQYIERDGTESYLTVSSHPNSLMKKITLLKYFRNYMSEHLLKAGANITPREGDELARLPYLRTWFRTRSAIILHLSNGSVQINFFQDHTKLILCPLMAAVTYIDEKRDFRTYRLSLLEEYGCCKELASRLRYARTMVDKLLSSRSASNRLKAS

CDK2 = CDK2 (Homo sapiens, UniProt P24941); details: read-out: percentage of the remaining kinase activity

| Compound | remaining activity at 0.5 µM (MAPKAPK2; MAPKAPK2, inhibitor at 500 nM) [%] | remaining activity at 0.5 µM (LIMK1; LIMK1, inhibitor at 500 nM) [%] | remaining activity at 0.5 µM (JAK2; JAK2, inhibitor at 500 nM) [%] | remaining activity at 0.5 µM (STK16; STK16, inhibitor at 500 nM) [%] | remaining activity at 0.5 µM (AURKA; AURKA, inhibitor at 500 nM) [%] | remaining activity at 0.5 µM (BTK; BTK, inhibitor at 500 nM) [%] | remaining activity at 0.5 µM (SRPK1; SRPK1, inhibitor at 500 nM) [%] | remaining activity at 0.5 µM (CLK1; CLK1, inhibitor at 500 nM) [%] | remaining activity at 0.5 µM (FGFR2; FGFR2, inhibitor at 500 nM) [%] | remaining activity at 0.5 µM (RPS6KA5; RPS6KA5, inhibitor at 500 nM) [%] | remaining activity at 0.5 µM (EGFR; EGFR, inhibitor at 500 nM) [%] | remaining activity at 0.5 µM (PAK4; PAK4, inhibitor at 500 nM) [%] | remaining activity at 0.5 µM (MAP3K7; MAP3K7, inhibitor at 500 nM) [%] | remaining activity at 0.5 µM (OXSR1; OXSR1, inhibitor at 500 nM) [%] | remaining activity at 0.5 µM (PLK1; PLK1, inhibitor at 500 nM) [%] | remaining activity at 0.5 µM (CDK2; CDK2, inhibitor at 500 nM) [%] | also measured |
| --- | --- | --- | --- | --- | --- | --- | --- | --- | --- | --- | --- | --- | --- | --- | --- | --- | --- |
| COC1C(N(C)C(=O)C(N)Cc2c[nH]cn2)CC2OC1(C)n1c3ccccc3c3c4c(c5c6ccccc6n2c5c31)C(=O)NC4 (stereo not shown) [Compound 1] | 73.3 | 18.8 | 4.4 | 59 | 2.1 | 13.9 | 24.4 | 15.9 | 9.8 | 1.7 | 30.5 | 40.2 | 37.5 | 106 | 93.8 | 16.5 | – |
| COC1C(N(C)C(=O)C(N)Cc2cn(C(=O)OC(C)(C)C)c3ccccc23)CC2OC1(C)n1c3ccccc3c3c4c(c5c6ccccc6n2c5c31)C(=O)NC4 (stereo not shown) [Compound 2] | 106 | 103 | 70 | 105 | 86.2 | 90.6 | 95.7 | 107 | 88.4 | 61.4 | 110 | 110 | 103 | 116 | 97.9 | 76.6 | – |
| COC1C(N(C)C(=O)C(N)Cc2ccc(OC(C)(C)C)cc2)CC2OC1(C)n1c3ccccc3c3c4c(c5c6ccccc6n2c5c31)C(=O)NC4 (stereo not shown) [Compound 4] | 108 | 66.9 | 36.4 | 99.8 | 19.7 | 65.4 | 85 | 98.6 | 43.2 | 1.6 | 108 | 95.2 | 98.6 | 110 | 104 | 57.5 | inhibitory effect on FGFR2 (FGFR2; in words): had an inhibitory effect on FGFR2 |
| COC1C(N(C)CCOc2cccc([N+](=O)[O-])c2)CC2OC1(C)n1c3ccccc3c3c4c(c5c6ccccc6n2c5c31)C(=O)NC4 (stereo not shown) [Compound 8] | – | – | – | – | – | – | – | – | – | – | – | – | – | – | – | – | remaining activity at 0.5 µM (MAPKAPK2): 94.6%; remaining activity at 0.5 µM (LIMK1): 49.9%; remaining activity at 0.5 µM (JAK2): 5.2%; remaining activity at 0.5 µM (STK16): 94%; remaining activity at 0.5 µM (AURKA): 12.1%; remaining activity at 0.5 µM (BTK): 53.9%; remaining activity at 0.5 µM (SRPK1): 78.3%; remaining activity at 0.5 µM (CLK1): 74.8%; remaining activity at 0.5 µM (FGFR2): 31.4%; remaining activity at 0.5 µM (RPS6KA5): 7.4%; remaining activity at 0.5 µM (EGFR): 102%; remaining activity at 0.5 µM (PAK4): 99.9%; remaining activity at 0.5 µM (MAP3K7): 63.5%; remaining activity at 0.5 µM (OXSR1): 102%; remaining activity at 0.5 µM (PLK1): 97.7%; remaining activity at 0.5 µM (CDK2): 12.3% |
| CN[C@@H]1C[C@H]2O[C@@](C)([C@@H]1OC)n1c3ccccc3c3c4c(c5c6ccccc6n2c5c31)C(=O)NC4 [STU, staurosporine, reference compound] | – | – | 0.8 | – | – | – | 17.7 | – | – | – | – | – | – | – | – | – | remaining activity at 0.5 µM (LIMK1): -0.6%; remaining activity at 0.5 µM (STK16): 52.5%; remaining activity at 0.5 µM (AURKA): 0.2%; remaining activity at 0.5 µM (RPS6KA5): 1.1%; remaining activity at 0.5 µM (OXSR1): 15.8% |

More lines, main results first:

| remaining activity at 0.5 µM (MAPKAPK2; MAPKAPK2, inhibitor at 500 nM) [%] | remaining activity at 0.5 µM (LIMK1; LIMK1, inhibitor at 500 nM) [%] | remaining activity at 0.5 µM (JAK2; JAK2, inhibitor at 500 nM) [%] | remaining activity at 0.5 µM (STK16; STK16, inhibitor at 500 nM) [%] | remaining activity at 0.5 µM (AURKA; AURKA, inhibitor at 500 nM) [%] | remaining activity at 0.5 µM (BTK; BTK, inhibitor at 500 nM) [%] | remaining activity at 0.5 µM (SRPK1; SRPK1, inhibitor at 500 nM) [%] | remaining activity at 0.5 µM (CLK1; CLK1, inhibitor at 500 nM) [%] | remaining activity at 0.5 µM (FGFR2; FGFR2, inhibitor at 500 nM) [%] | remaining activity at 0.5 µM (RPS6KA5; RPS6KA5, inhibitor at 500 nM) [%] | remaining activity at 0.5 µM (EGFR; EGFR, inhibitor at 500 nM) [%] | remaining activity at 0.5 µM (PAK4; PAK4, inhibitor at 500 nM) [%] | remaining activity at 0.5 µM (MAP3K7; MAP3K7, inhibitor at 500 nM) [%] | remaining activity at 0.5 µM (OXSR1; OXSR1, inhibitor at 500 nM) [%] | remaining activity at 0.5 µM (PLK1; PLK1, inhibitor at 500 nM) [%] | remaining activity at 0.5 µM (CDK2; CDK2, inhibitor at 500 nM) [%] | Compound | also measured |
| --- | --- | --- | --- | --- | --- | --- | --- | --- | --- | --- | --- | --- | --- | --- | --- | --- | --- |
| 95.3 | 46.9 | 19.4 | 86.7 | 4.9 | 37.8 | 61.1 | 29.6 | 21.7 | 2.4 | 93.1 | 53.3 | 70.7 | 109 | 99.2 | 56.9 | COC1C(N(C)C(=O)C(N)Cc2ccc(O)cc2)CC2OC1(C)n1c3ccccc3c3c4c(c5c6ccccc6n2c5c31)C(=O)NC4 (stereo not shown) [Compound 5] | – |
| 105 | 39.5 | 39.6 | 94 | 5.3 | 43.6 | 65.3 | 86.6 | 26.5 | 3.3 | 108 | 80.8 | 84.2 | 111 | 104 | 55 | COC1C(N(C)C(=O)C(N)CCC(=O)OC(C)(C)C)CC2OC1(C)n1c3ccccc3c3c4c(c5c6ccccc6n2c5c31)C(=O)NC4 (stereo not shown) [Compound 6] | – |
| 91.8 | 1.4 | 1.5 | 51.6 | 0.9 | 11.9 | 38.9 | 32.3 | 9.2 | 1.8 | 82.2 | 38.4 | 27.8 | 100 | 80.9 | 19.3 | COC1C(N(C)C(=O)C(N)CCC(=O)O)CC2OC1(C)n1c3ccccc3c3c4c(c5c6ccccc6n2c5c31)C(=O)NC4 (stereo not shown) [Compound 7] | – |
| 92.5 | 56.5 | 4.4 | 103 | 11.2 | 55.8 | 78.5 | 73.7 | 26.5 | 5.2 | 96.2 | 91.8 | 69.4 | 94.7 | 95.9 | 8.2 | COC1C(N(C)Cc2ccc(-c3ccccc3)cc2)CC2OC1(C)n1c3ccccc3c3c4c(c5c6ccccc6n2c5c31)C(=O)NC4 (stereo not shown) [Compound 9] | – |

— patent publication US9738660B2, “Selective inhibitors for protein kinases and pharmaceutical composition and use thereof” (National Chiao Tung University, priority 2014, dated 2017)
